The record followed here is ChEMBL document CHEMBL1132053, “Synthesis and activity of 2-(sulfonamido)methyl-carbapenems: discovery of a novel, anti-MRSA 1,8-naphthosultam pharmacophore” (Bioorg Med Chem Lett, 1999).

In experiment [1] the test system is Staphylococcus aureus. As to the kind of experiment: Antibacterial activity against MRSA strain COL. The class given is functional.
Experiment [2] deals with Staphylococcus aureus. As to the kind of experiment: Antibacterial activity against MRSA. It counts as functional.
The next experiment deals with T1, MecA (Staphylococcus aureus, UniProt Q7DHH4).
T1 sequence (Q7DHH4 whole entry): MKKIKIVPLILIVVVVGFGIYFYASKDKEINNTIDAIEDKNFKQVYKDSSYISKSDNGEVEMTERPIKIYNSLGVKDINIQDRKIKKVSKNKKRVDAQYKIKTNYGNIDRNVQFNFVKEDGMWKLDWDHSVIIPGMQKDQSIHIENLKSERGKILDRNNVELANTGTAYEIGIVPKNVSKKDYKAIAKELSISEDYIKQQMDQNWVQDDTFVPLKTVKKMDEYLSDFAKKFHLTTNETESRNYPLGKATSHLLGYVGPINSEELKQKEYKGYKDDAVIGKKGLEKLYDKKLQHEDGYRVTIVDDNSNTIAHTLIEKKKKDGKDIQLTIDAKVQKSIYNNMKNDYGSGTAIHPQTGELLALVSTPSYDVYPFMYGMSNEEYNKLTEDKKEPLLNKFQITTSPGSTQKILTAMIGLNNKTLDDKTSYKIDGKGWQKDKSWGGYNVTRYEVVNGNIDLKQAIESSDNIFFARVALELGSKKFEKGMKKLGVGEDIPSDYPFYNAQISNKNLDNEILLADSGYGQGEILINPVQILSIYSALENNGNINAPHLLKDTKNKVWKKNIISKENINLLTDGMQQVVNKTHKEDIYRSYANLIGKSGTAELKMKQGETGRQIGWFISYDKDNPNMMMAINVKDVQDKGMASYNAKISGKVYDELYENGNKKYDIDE
As to the kind of experiment: Compound was tested for its binding affinity towards Penicillin-binding protein 2a (PBP2a) using […]-benzylpenicillin.

Another experiment concerns Enterococcus faecium. Nature of the experiment: Antibacterial activity against MDREFm. The class given is functional.
A further experiment deals with Staphylococcus sp. As to the kind of experiment: (§1) Antibacterial activity against MRCNS. The class given is functional.
For the next experiment, the system named is Enterococcus faecalis. Nature of the experiment: Antibacterial activity against VREFs. It counts as functional.
A further experiment deals with Streptococcus pneumoniae. Nature of the experiment: Antibacterial activity against PRSP. The class given is functional.
The test system of experiment [3] is Staphylococcus aureus. As to the kind of experiment: Antibacterial activity against for MRSA strain COL. The class given is functional.
In another experiment the test system is Staphylococcus. The experiment is described as §1. It counts as functional.

The structures appear in SMILES notation. ≈ marks a conversion by molar mass, not a printed value.

As for `C[C@@H](O)[C@H]1C(=O)N2C(C(=O)[O-])=C(CN3Cc4c(ccc5ccccc45)S3(=O)=O)[C@H](C)[C@H]12.[Na+]`, the MIC (usually the smallest concentration in the dilution series that meets the test's criterion for growth inhibition) with Staphylococcus aureus [1] was 8 µg/mL; against Staphylococcus aureus [2], 3.4 µg/mL; with Enterococcus faecium, 50.8 µg/mL; against Staphylococcus sp. it was 10.6 µg/mL; against Enterococcus faecalis it was 8 µg/mL; against Streptococcus pneumoniae it was 0.17 µg/mL. Further, the IC50 (as a rule, the concentration that inhibits the measured activity by half) at MecA was 38.1 µM.
`C[C@@H](O)[C@H]1C(=O)N2C(C(=O)[O-])=C(CN3Cc4ccccc4S3(=O)=O)[C@H](C)[C@H]12.[Na+]` registered an MIC against Staphylococcus aureus [1] of 64 µg/mL.
As for `C[C@@H](O)[C@H]1C(=O)N2C(C(=O)[O-])=C(CN3Cc4cccc5cccc(c45)S3(=O)=O)[C@H](C)[C@H]12.[Na+]`, the MIC in the experiment with Staphylococcus aureus [1] is 16 µg/mL; against Staphylococcus aureus [2], 8.5 µg/mL; in the experiment on Enterococcus faecium it was 40.3 µg/mL; in the experiment on Staphylococcus sp., 16 µg/mL; against Enterococcus faecalis, 8 µg/mL; in the experiment on Streptococcus pneumoniae it was 0.12 µg/mL. At MecA, this molecule showed an IC50 of 46.9 µM.
`C[C@@H](O)[C@H]1C(=O)N2C(C(=O)[O-])=C(CN(c3cccc4ccccc34)S(C)(=O)=O)[C@H](C)[C@H]12.[Na+]` had an MIC with Staphylococcus aureus [3] above 64 µg/mL.
In the experiment with Staphylococcus aureus [1], `C[C@@H](O)[C@H]1C(=O)N2C(C(=O)[O-])=C(CN(c3ccccc3)S(=O)(=O)c3ccccc3)[C@H](C)[C@H]12.[Na+]` registered an MIC of 64 µg/mL.
`C[C@@H](O)[C@H]1C(=O)N2C(C(=O)[O-])=C(CN3C(=O)c4ccccc4S3(=O)=O)[C@H](C)[C@H]12.[Na+]` yielded an MIC against Staphylococcus aureus [1] of 16 µg/mL.
In the case of `C[C@@H](O)[C@H]1C(=O)N2C(C(=O)[O-])=C(CN3C(=O)c4cccc5cccc(c45)S3(=O)=O)[C@H](C)[C@H]12.[Na+]`, the MIC against Staphylococcus aureus [1] came out at 8 µg/mL; in the experiment on Staphylococcus aureus [2], 4 µg/mL; with Enterococcus faecium, 32 µg/mL; in the experiment with Staphylococcus sp., 8 µg/mL; against Enterococcus faecalis, 8 µg/mL; against Streptococcus pneumoniae, 0.25 µg/mL. Further, the IC50 at MecA is 5.02 µM.
With `C[C@@H](O)[C@H]1C(=O)N2C(C(=O)[O-])=C(CN3C(=O)c4cccc5cccc3c45)[C@H](C)[C@H]12.[Na+]`, the MIC against Staphylococcus aureus [1] amounted to 32 µg/mL; in the experiment on Staphylococcus aureus [2], 12 µg/mL; in the experiment with Enterococcus faecium it was 64 µg/mL; with Staphylococcus, 21.1 µg/mL; against Enterococcus faecalis, 64 µg/mL; with Streptococcus pneumoniae, 4 µg/mL.
In the experiment on Staphylococcus aureus [1], `C[C@@H](O)[C@H]1C(=O)N2C(C(=O)[O-])=C(CN3c4ccccc4CS3(=O)=O)[C@H](C)[C@H]12.[Na+]` yielded an MIC of 16 µg/mL.
For the molecule `C[C@@H](O)[C@H]1C(=O)N2C(C(=O)[O-])=C(CN3c4cccc5cccc(c45)N(C)S3(=O)=O)[C@H](C)[C@H]12.[Na+]`, the MIC with Staphylococcus aureus [1] amounted to 4 µg/mL; against Staphylococcus aureus [2], 1.5 µg/mL; against Enterococcus faecium it was 64 µg/mL; against Staphylococcus sp. it was 7 µg/mL; with Enterococcus faecalis, 64 µg/mL; against Streptococcus pneumoniae, 1 µg/mL. The IC50 on MecA is 14.8 µM.
In turn, `C[C@@H](O)[C@H]1C(=O)N2C(C(=O)[O-])=C(CN(c3cccc4c3-c3ccccc3C4=O)S(C)(=O)=O)[C@H](C)[C@H]12.[Na+]` had an MIC against Staphylococcus aureus [1] above 64 µg/mL.
For `C[C@@H](O)[C@H]1C(=O)N2C(C(=O)[O-])=C(CN3C(=O)c4cccc5cccc(c45)C3=O)[C@H](C)[C@H]12.[Na+]`, the MIC against Staphylococcus aureus [1] came to 32 µg/mL; against Staphylococcus aureus [2], 12 µg/mL; in the experiment with Enterococcus faecium it was 64 µg/mL; with Staphylococcus sp., 24.3 µg/mL; with Enterococcus faecalis, 24.3 µg/mL; against Streptococcus pneumoniae, 1.4 µg/mL. Further, the IC50 at MecA was 3.16 µM.
In turn, `C[C@@H](O)[C@H]1C(=O)N2C(C(=O)[O-])=C(CN3c4cccc5cccc(c45)S3(=O)=O)[C@H](C)[C@H]12.[Na+]` gave a minimum inhibitory concentration (MIC) against Staphylococcus aureus [1] of 2 µg/mL.
`C[C@@H](O)[C@H]1C(=O)N2C(C(=O)[O-])=C(CN3c4ccccc4-c4ccccc4S3(=O)=O)[C@H](C)[C@H]12.[Na+]` gave an MIC against Staphylococcus aureus [1] of 8 µg/mL.
On the same count and under the same terms, the figure for `C[C@@H](O)[C@H]1C(=O)N2C(C(=O)[O-])=C(CN(c3ccc4ccccc4c3)S(=O)(=O)c3ccccc3)[C@H](C)[C@H]12.[Na+]` is 64 µg/mL.
On to `C[C@@H](O)[C@H]1C(=O)N2C(C(=O)[O-])=C(CN3C(=O)c4c(ccc5ccccc45)S3(=O)=O)[C@H](C)[C@H]12.[Na+]`, for which the MIC with Staphylococcus aureus [1] came out at 4 µg/mL; with Staphylococcus aureus [2], 1.3 µg/mL; against Enterococcus faecium it was 20.2 µg/mL; with Staphylococcus sp., 5.3 µg/mL; in the experiment with Enterococcus faecalis, 8 µg/mL; in the experiment on Streptococcus pneumoniae it was 0.25 µg/mL. At MecA, this molecule showed a half-maximal inhibitory concentration (IC50) of 3.34 µM.
In the case of `C[C@@H](O)[C@H]1C(=O)N2C(C(=O)[O-])=C(CN(c3ccccc3)S(=O)(=O)c3ccc4ccccc4c3)[C@H](C)[C@H]12.[Na+]`, inhibition of growth with Staphylococcus aureus [1] (MIC) required 64 µg/mL.
On to `C[C@@H](O)[C@H]1C(=O)N2C(C(=O)[O-])=C(CN(c3ccc4ccccc4c3)S(C)(=O)=O)[C@H](C)[C@H]12.[Na+]`, for which the MIC in the experiment with Staphylococcus aureus [1] was above 64 µg/mL.
For `C[C@@H](O)[C@H]1C(=O)N2C(C(=O)O)=C(SCCNC=N)C[C@H]12` [IMIPENEM ANHYDROUS], the MIC was above 40 µg/mL in the experiment with Staphylococcus aureus [2]; above 64 µg/mL against Enterococcus faecium; above 64 µg/mL against Staphylococcus sp.; 8 µg/mL (≈ 26.7 µM) against Enterococcus faecalis; 0.25 µg/mL (≈ 0.835 µM) against Streptococcus pneumoniae. The same molecule showed an IC50 at MecA of 628 µM.
Consider `CN[C@H](CC(C)C)C(=O)N[C@H]1C(=O)N[C@@H](CC(N)=O)C(=O)N[C@H]2C(=O)N[C@H]3C(=O)N[C@H](C(=O)N[C@H](C(=O)O)c4cc(O)cc(O)c4-c4cc3ccc4O)[C@H](O)c3ccc(c(Cl)c3)Oc3cc2cc(c3O[C@@H]2O[C@H](CO)[C@@H](O)[C@H](O)[C@H]2O[C@H]2C[C@](C)(N)[C@H](O)[C@H](C)O2)Oc2ccc(cc2Cl)[C@H]1O` [VANCOMYCIN], for which the MIC was 0.9 µg/mL (≈ 0.621 µM) with Staphylococcus aureus [2]; 20.2 µg/mL (≈ 13.9 µM) against Enterococcus faecium; 1.7 µg/mL (≈ 1.17 µM) with Staphylococcus sp.; above 64 µg/mL with Enterococcus faecalis; 0.35 µg/mL (≈ 0.242 µM) against Streptococcus pneumoniae.
